Here are results for 22 molecules from EP4813993A1, “COMPOUND, PREPARATION METHOD THEREFOR, AND USE THEREOF” (Sichuan Kelun Pharmaceutical Research Institute Co., Ltd., priority 2023, dated 2025).

T1 sequence (Q9Y5Y9 whole entry): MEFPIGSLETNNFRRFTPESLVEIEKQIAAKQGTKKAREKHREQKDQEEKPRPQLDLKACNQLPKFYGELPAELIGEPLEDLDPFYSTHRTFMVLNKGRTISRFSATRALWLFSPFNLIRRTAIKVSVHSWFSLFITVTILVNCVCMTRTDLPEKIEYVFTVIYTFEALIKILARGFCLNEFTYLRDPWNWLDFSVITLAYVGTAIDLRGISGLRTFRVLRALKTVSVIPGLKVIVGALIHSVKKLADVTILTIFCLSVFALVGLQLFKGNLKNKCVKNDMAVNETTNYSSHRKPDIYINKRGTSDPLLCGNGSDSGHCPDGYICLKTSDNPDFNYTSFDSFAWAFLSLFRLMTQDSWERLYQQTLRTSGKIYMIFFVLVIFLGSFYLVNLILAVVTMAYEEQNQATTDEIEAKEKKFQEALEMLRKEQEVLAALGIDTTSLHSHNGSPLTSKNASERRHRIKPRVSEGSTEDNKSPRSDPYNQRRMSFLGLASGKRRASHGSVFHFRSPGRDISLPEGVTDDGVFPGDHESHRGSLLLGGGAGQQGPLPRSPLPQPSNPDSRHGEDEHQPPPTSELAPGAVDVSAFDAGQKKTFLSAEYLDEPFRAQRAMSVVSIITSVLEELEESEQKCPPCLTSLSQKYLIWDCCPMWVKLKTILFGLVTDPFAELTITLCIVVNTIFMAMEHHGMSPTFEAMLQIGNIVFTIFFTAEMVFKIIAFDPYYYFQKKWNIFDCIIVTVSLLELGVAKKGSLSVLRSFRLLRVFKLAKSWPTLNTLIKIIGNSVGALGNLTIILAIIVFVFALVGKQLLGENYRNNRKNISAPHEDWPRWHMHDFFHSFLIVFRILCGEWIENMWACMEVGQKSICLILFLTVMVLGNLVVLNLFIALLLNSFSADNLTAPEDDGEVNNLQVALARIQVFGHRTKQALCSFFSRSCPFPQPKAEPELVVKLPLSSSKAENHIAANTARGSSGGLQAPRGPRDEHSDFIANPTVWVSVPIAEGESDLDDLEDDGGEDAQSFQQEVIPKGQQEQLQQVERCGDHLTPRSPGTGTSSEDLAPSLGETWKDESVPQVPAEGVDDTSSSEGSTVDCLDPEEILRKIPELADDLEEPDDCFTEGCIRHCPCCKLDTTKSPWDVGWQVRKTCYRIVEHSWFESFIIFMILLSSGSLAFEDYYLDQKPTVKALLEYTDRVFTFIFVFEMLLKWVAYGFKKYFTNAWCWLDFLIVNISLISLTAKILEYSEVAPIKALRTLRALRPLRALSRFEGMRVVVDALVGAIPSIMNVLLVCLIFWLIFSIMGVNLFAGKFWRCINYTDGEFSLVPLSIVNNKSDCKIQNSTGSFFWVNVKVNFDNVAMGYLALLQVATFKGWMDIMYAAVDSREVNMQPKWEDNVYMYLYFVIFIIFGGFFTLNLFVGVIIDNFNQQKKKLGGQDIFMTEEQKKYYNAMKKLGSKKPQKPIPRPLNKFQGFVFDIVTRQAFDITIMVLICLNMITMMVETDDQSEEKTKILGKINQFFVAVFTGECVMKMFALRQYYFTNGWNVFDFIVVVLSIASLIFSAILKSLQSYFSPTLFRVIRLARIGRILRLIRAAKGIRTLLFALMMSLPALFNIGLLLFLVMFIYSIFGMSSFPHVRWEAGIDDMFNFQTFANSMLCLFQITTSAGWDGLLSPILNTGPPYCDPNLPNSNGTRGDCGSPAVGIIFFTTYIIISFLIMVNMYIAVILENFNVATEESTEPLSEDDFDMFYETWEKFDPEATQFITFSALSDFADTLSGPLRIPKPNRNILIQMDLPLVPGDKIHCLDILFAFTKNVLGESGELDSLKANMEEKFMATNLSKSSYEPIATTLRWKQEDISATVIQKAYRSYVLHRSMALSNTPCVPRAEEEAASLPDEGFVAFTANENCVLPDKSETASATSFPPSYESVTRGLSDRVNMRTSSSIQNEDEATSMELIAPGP

The first assay addresses T1, Nav1.8 channels (Homo sapiens, UniProt Q9Y5Y9).
T1 construct: expressed in transfected cells
Briefly: Manual patch-clamp, current of stably overexpressed Nav1.8 channels (resting state voltage program). As to conditions: concentration of 1 nM, read-out: Inhibition rate %. Type of assay: cell-based. The procedure: Experimental Example 1: Effects of test substances on current of stably overexpressed Nav1.8 channels monitored via manual patch-clamp technique
Test compounds were dissolved in dimethyl sulfoxide (DMSO).
The extracellular fluid was as follows: 140 mM NaCl, 3.5 mM KCl, 1 mM MgCl2•6H2O, 2 mM CaCl2•2H2O, 10 mM D-Glucose, 10 mM HEPES, 1.25 mM NaH2PO4•2H2O; the pH was adjusted to 7.4 with NaOH. The intracellular fluid was as follows: 50 mM CsCl, 10 mM NaCl, 10 mM HEPES, 60 mM CsF, 20 mM EGTA; the pH was adjusted to 7.2 with CsOH.
2. Experimental materials and instruments
• 1) patch-clamp amplifier: EPC 10 (HEKA) • 2) micromanipulator: MP225 (Sutter Instrument) • 3) inverted microscope: MF53 (Mshot) • 4) micropipette puller: P97 (Sutter Instrument) • 5) capillary glass tube: BF150-86-10 (Sutter Instrument)
3. Experimental procedures
• 1) After the compounds were prepared into solutions with specified concentrations, the solutions were sequentially added to the pipeline of the drug delivery system and labeled. • 2) The cell climbing coverslip was placed in the recording chamber, the appropriate cells were selected under the inverted microscope, and the position of the drug delivery tip was adjusted. • 3) A capillary glass tube was pulled into a suitable recording electrode using the micropipette puller, and then the electrode filled with the intracellular fluid was mounted in the microelectrode holder. The micromanipulator was adjusted under the inverted microscope to allow the recording electrode to contact the cell, and negative pressure was applied to the electrode to form a high-resistance seal. At this time, fast capacitance compensation was performed, and then the application of negative pressure was continued to break the cell membrane, forming a whole-cell recording mode. Finally, slow capacitance compensation was performed, and related parameters were recorded. • 4) After the cell current stabilized, administration was started. Each concentration of the drug was applied for five minutes or until the current stabilized before proceeding to monitor the next concentration. The drug solutions were administered via gravity-fed delivery, flowing through the recording chamber to act on the cells in an ascending order of concentration (from low to high). A peristaltic pump was employed for solution exchange in the recording process.
4 Test voltage program (resting state) and results
After the formation of the whole-cell seal, the cell voltage was clamped at -120 mV, followed by depolarization to 0 mV using a square-wave pulse with a duration of 50 ms to elicit Nav1.8 currents. This procedure was repeated every 20 s to monitor the maximum current induced by the square wave. After the current stabilized, the test compounds were administered. Once the response stabilized, the intensity of the current block was calculated.
With `COc1c(C2CC(C)(C(F)(F)F)SC2C(=O)Nc2ccc3nnnn3c2)ccc(F)c1F` (centres unmarked) [Compound 202, 3-(3,4-difluoro-2-methoxyphenyl)-5-methyl-N-(tetrazolo[1,5-a]pyridin-6-yl)-5-(trifluoromethyl)tetrahydrothiophene-2-carboxamide], the inhibition at 0.001 µM worked out at 81%. Take `COc1c(C2CC(C)(C(F)(F)F)SC2C(=O)Nc2ccn3nnnc3c2)ccc(F)c1F` (centres unmarked) [Compound 203, 3-(3,4-difluoro-2-methoxyphenyl)-5-methyl-N-(tetrazolo[1,5-a]pyridin-7-yl)-5-(trifluoromethyl)tetrahydrothiophene-2-carboxamide]: the inhibition at 0.001 µM came to 80.4%.

For `COc1c(C2CC(C)(C(F)(F)F)SC2C(=O)Nc2cccc(S(C)(=N)=O)c2)ccc(F)c1F` (centres unmarked) [Compound 225, 3-(3,4-difluoro-2-methoxyphenyl)-5-methyl-N-(3-(S-methylsulfonimidoyl)phenyl)-5-(trifluoromethyl)tetrahydrothiophene-2-carboxamide], the inhibition at 0.001 µM was 91.2%. The same measure, in the same setting: the value for `COc1c([C@@H]2C[C@](C)(C(F)(F)F)S[C@H]2C(=O)Nc2ccc(C(=O)O)c(O)c2)ccc(F)c1F` [Compound 226-A, 4-((2R,3S,5R)-3-(3,4-difluoro-2-methoxyphenyl)-5-methyl-5-(trifluoromethyl)tetrahydrothiophene-2-carboxamido)-2-hydroxybenzoic acid] was 32.2%; that for `COc1c([C@@H]2C[C@](C)(C(F)(F)F)S[C@H]2C(=O)Nc2ccc(B3OC(C)(C)C(C)(C)O3)c(F)c2)ccc(F)c1F` [Compound 229-A, (2R,3S,5R)-3-(3,4-difluoro-2-methoxyphenyl)-N-(3-fluoro-4-(4,4,5,5-tetramethyl-1,3,2-dioxaborolan-2-yl)phenyl)-5-methyl-5-(trifluoromethyl)tetrahydrothiophene-2-carboxamide] was 48.6%.

For the molecule `COc1c(C2CC(C)(C(F)(F)F)SC2C(=O)Nc2ccc([S+](C)[O-])nc2)ccc(F)c1F` (centres unmarked) [Compound 232, 3-(3,4-difluoro-2-methoxyphenyl)-5-methyl-N-(6-(methylsulfinyl)pyridin-3-yl)-5-(trifluoromethyl)tetrahydrothiophene-2-carboxamide], the inhibition at 0.001 µM was 78.4%. Same read-out and setting: the value for `COc1c([C@@H]2C[C@](C)(C(F)(F)F)S[C@H]2C(=O)Nc2ccc([S+](C)[O-])nc2)ccc(F)c1F` (stereo partly drawn) [Compound 238-A, (2R,3S,5R)-3-(3,4-difluoro-2-methoxyphenyl)-5-methyl-N-(6-(methylsulfinyl)pyridin-3-yl)-5-(trifluoromethyl)tetrahydrothiophene-2-carboxamide] was 85.5%. On the same count and under the same terms, the figure for `COc1c([C@@H]2C[C@](C)(C(F)(F)F)S[C@H]2C(=O)Nc2ccnc(C(F)F)c2)ccc(F)c1F` [Compound 244-A, (2R,3S,5R)-3-(3,4-difluoro-2-methoxyphenyl)-N-(2-(difluoromethyl)pyridin-4-yl)-5-methyl-5-(trifluoromethyl)tetrahydrothiophene-2-carboxamide] is 87.8%.

Take `COc1c([C@@H]2C[C@](C)(C(F)(F)F)S[C@H]2C(=O)Nc2ccc3nonc3c2)ccc(F)c1F` [Compound 248-A, (2R,3S,5R)-N-(benzo[c][1,2,5]oxadiazol-5-yl)-3-(3,4-difluoro-2-methoxyphenyl)-5-methyl-5-(trifluoromethyl)tetrahydrothiophene-2-carboxamide]: the inhibition at 0.001 µM worked out at 72.6%. On the same count and under the same terms, the value for `COc1c([C@@H]2C[C@](C)(C(F)(F)F)S[C@H]2C(=O)Nc2ccc(N)c(S(N)(=O)=O)c2)ccc(F)c1F` [Compound 249-A, (2R,3S,5R)-N-(4-amino-3-sulfamoylphenyl)-3-(3,4-difluoro-2-methoxyphenyl)-5-methyl-5-(trifluoromethyl)tetrahydrothiophene-2-carboxamide] was 81.6%.

For `C=CC(=O)Nc1cc(NC(=O)[C@@H]2S[C@@](C)(C(F)(F)F)C[C@H]2c2ccc(F)c(F)c2OC)ccn1` [Compound 252-A, (2R,3S,5R)-N-(2-acrylamidopyridin-4-yl)-3-(3,4-difluoro-2-methoxyphenyl)-5-methyl-5-(trifluoromethyl)tetrahydrothiophene-2-carboxamide], the inhibition at 0.001 µM came to 62.7%. On to `CNC(=O)c1cc(NC(=O)[C@@H]2S[C@@](C)(C(F)(F)F)C[C@H]2c2ccc(F)c(F)c2OC)ccn1` [Compound 253-A, 4-((2R,3S,5R)-3-(3,4-difluoro-2-methoxyphenyl)-5-methyl-5-(trifluoromethyl)tetrahydrothiophene-2-carboxamido)-N-methylpicolinamide], for which the inhibition at 0.001 µM came to 68.6%.

The same assay, now with this note: concentration of 10 nM, read-out: Inhibition rate %.
For `COc1c([C@@H]2C[C@](C)(C(F)(F)F)S[C@H]2C(=O)Nc2ccnc(OCC(O)CO)c2)ccc(F)c1F` (stereo partly drawn) [Compound 191-A, (2R,3S,5R)-3-(3,4-difluoro-2-methoxyphenyl)-N-(2-(2,3-dihydroxypropoxy)pyridin-4-yl)-5-methyl-5-(trifluoromethyl)tetrahydrothiophene-2-carboxamide], the inhibition at 0.01 µM came to 88.8%.

As for `COc1c(C2CC(C)(C(F)(F)F)SC2C(=O)Nc2ccnc(S(C)(=O)=O)c2)ccc(F)c1F` (centres unmarked) [Compound 192, (4-(3-(3,4-difluoro-2-methoxyphenyl)-5-methyl-5-(trifluoromethyl)tetrahydrothiophene-2-carboxamido)-2-methylsulfonyl)pyridine], the inhibition at 0.01 µM worked out at 96.4%.

On to `COc1c(C2CC(C)(C(F)(F)F)SC2C(=O)Nc2conc2C)ccc(F)c1F` (centres unmarked) [Compound 197, 3-(3,4-difluoro-2-methoxyphenyl)-5-methyl-N-(3-methylisoxazol-4-yl)-5-(trifluoromethyl)tetrahydrothiophene-2-carboxamide], for which the inhibition at 0.01 µM amounted to 91.1%. Same read-out and setting: the value for `COc1c(C2CC(C)(C(F)(F)F)SC2C(=O)Nc2cn(C(F)F)nc2C)ccc(F)c1F` (centres unmarked) [Compound 199, (4-(3-(3,4-difluoro-2-methoxyphenyl)-5-methyl-5-(trifluoromethyl)tetrahydrothiophene-2-carboxamido)-1-difluoromethyl-3-methyl)pyrazole] was 89.4%.

For the molecule `COc1c(C2CC(C)(C(F)(F)F)SC2C(=O)Nc2ccc3c(c2)COB3O)ccc(F)c1F` (centres unmarked) [Compound 219, 3-(3,4-difluoro-2-methoxyphenyl)-N-(1-hydroxy-1,3-dihydrobenzo[c][1,2]oxaborol-5-yl)-5-methyl-5-(trifluoromethyl)tetrahydrothiophene-2-carboxamide], the inhibition at 0.01 µM was determined as 88%. Same read-out and setting: the figure for `[2H]C1(C(=O)Nc2ccnc(O)c2)SC(C)(C(F)(F)F)CC1c1ccc(F)c(F)c1OC` (stereo not drawn) [Compound 222, 3-(3,4-difluoro-2-methoxyphenyl)-N-(2-hydroxypyridin-4-yl)-5-methyl-5-(trifluoromethyl)tetrahydrothiophene-2-d-2-carboxamide] is 97%; for `COc1c(C2CC(C)(C(F)(F)F)SC2C(=O)Nc2ccc(F)c(S(C)(=N)=O)c2)ccc(F)c1F` (centres unmarked) [Compound 227, 3-(3,4-difluoro-2-methoxyphenyl)-N-(4-fluoro-3-(S-methylsulfonimidoyl)phenyl)-5-methyl-5-(trifluoromethyl)tetrahydrothiophene-2-carboxamide] it is 97.7%; for `COc1c([C@@H]2C[C@](C)(C(F)(F)F)S[C@H]2C(=O)Nc2ccc(SC)nc2)ccc(F)c1F` [Compound 231-A, (2R,3S,5R)-3-(3,4-difluoro-2-methoxyphenyl)-5-methyl-N-(6-(methylthio)pyridin-3-yl)-5-(trifluoromethyl)tetrahydrothiophene-2-carboxamide] it is 83.7%. Same read-out and setting: the figure for `COc1c(C2CC(C)(C(F)(F)F)SC2C(=O)Nc2ccc([S+](C)[O-])nc2)ccc(F)c1F` (centres unmarked) [Compound 232, 3-(3,4-difluoro-2-methoxyphenyl)-5-methyl-N-(6-(methylsulfinyl)pyridin-3-yl)-5-(trifluoromethyl)tetrahydrothiophene-2-carboxamide] is 96.1%. On the same count and under the same terms, the value for `COc1c([C@@H]2C[C@](C)(C(F)(F)F)S[C@H]2C(=O)Nc2cccc(S(=O)(=O)N(C)C)c2)ccc(F)c1F` [Compound 240-A, (2R,3S,5R)-3-(3,4-difluoro-2-methoxyphenyl)-N-(3-(N,N-dimethylsulfamoyl)phenyl)-5-methyl-5-(trifluoromethyl)tetrahydrothiophene-2-carboxamide] was 87.4%; that for `CNS(=O)(=O)c1cccc(NC(=O)[C@@H]2S[C@@](C)(C(F)(F)F)C[C@H]2c2ccc(F)c(F)c2OC)c1` [Compound 241-A, (2R,3S,5R)-3-(3,4-difluoro-2-methoxyphenyl)-5-methyl-N-(3-(N-methylsulfamoyl)phenyl)-5-(trifluoromethyl)tetrahydrothiophene-2-carboxamide] was 95.4%.

By inhibition is commonly meant the change of the read-out against control, counted positive when it falls.
